Tested on: Detoxification protein genes
Assay: DNA chip mRNA expression in yeast, detoxification protein genes (Table 8)
Assay type: cell-based, Saccharomyces cerevisiae S288C
Procedure, shortened: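 Expression change after 2 h toxicant exposure (growth-inhibiting, sub-lethal) of log-phase S. cerevisiae S288C at 25° C. Oligo-dT-purified mRNA was labeled with Cy3-dUTP or Cy5-dUTP and hybridized >12 h at 65° C. to a genome-wide chip; ratio of scanned fluorescence to control.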

## manganese ethylenebis(dithiocarbamate) [(8)]
Yeast gene YBR244W
  The level of expressed mRNA in the presence of chemical substance/The level of expressed mRNA in the absence of chemical substance: 1.0
Yeast gene YBR293W
  The level of expressed mRNA in the presence of chemical substance/The level of expressed mRNA in the absence of chemical substance: 0.9
Yeast gene YCL035C
  The level of expressed mRNA in the presence of chemical substance/The level of expressed mRNA in the absence of chemical substance: 1.4
Yeast gene YCL069W
  The level of expressed mRNA in the presence of chemical substance/The level of expressed mRNA in the absence of chemical substance: 1.3
Yeast gene YCR083W
  The level of expressed mRNA in the presence of chemical substance/The level of expressed mRNA in the absence of chemical substance: 1.5
Yeast gene YDL100C
  The level of expressed mRNA in the presence of chemical substance/The level of expressed mRNA in the absence of chemical substance: 1.7
Yeast gene YDL168W
  The level of expressed mRNA in the presence of chemical substance/The level of expressed mRNA in the absence of chemical substance: 1.7
Yeast gene YDR256C
  The level of expressed mRNA in the presence of chemical substance/The level of expressed mRNA in the absence of chemical substance: 0.8
Yeast gene YDR453C
  The level of expressed mRNA in the presence of chemical substance/The level of expressed mRNA in the absence of chemical substance: 1.3
Yeast gene YDR513W
  The level of expressed mRNA in the presence of chemical substance/The level of expressed mRNA in the absence of chemical substance: 1.6
Yeast gene YDR538W
  The level of expressed mRNA in the presence of chemical substance/The level of expressed mRNA in the absence of chemical substance: 1.0
Yeast gene YEL027W
  The level of expressed mRNA in the presence of chemical substance/The level of expressed mRNA in the absence of chemical substance: 0.9
Yeast gene YEL065W
  The level of expressed mRNA in the presence of chemical substance/The level of expressed mRNA in the absence of chemical substance: 0.9
Yeast gene YER185W
  The level of expressed mRNA in the presence of chemical substance/The level of expressed mRNA in the absence of chemical substance: 1.0
Yeast gene YFL050C
  The level of expressed mRNA in the presence of chemical substance/The level of expressed mRNA in the absence of chemical substance: 0.9
Yeast gene YGL013C
  The level of expressed mRNA in the presence of chemical substance/The level of expressed mRNA in the absence of chemical substance: 1.4
Yeast gene YGL254W
  The level of expressed mRNA in the presence of chemical substance/The level of expressed mRNA in the absence of chemical substance: 1.4
Yeast gene YGR088W
  The level of expressed mRNA in the presence of chemical substance/The level of expressed mRNA in the absence of chemical substance: 0.8
Yeast gene YGR138C
  The level of expressed mRNA in the presence of chemical substance/The level of expressed mRNA in the absence of chemical substance: 1.0
Yeast gene YGR197C
  The level of expressed mRNA in the presence of chemical substance/The level of expressed mRNA in the absence of chemical substance: 0.8
Yeast gene YGR209C
  The level of expressed mRNA in the presence of chemical substance/The level of expressed mRNA in the absence of chemical substance: 1.6
Yeast gene YGR224W
  The level of expressed mRNA in the presence of chemical substance/The level of expressed mRNA in the absence of chemical substance: 0.6
Yeast gene YHL040C
  The level of expressed mRNA in the presence of chemical substance/The level of expressed mRNA in the absence of chemical substance: 1.5
Yeast gene YHL047C
  The level of expressed mRNA in the presence of chemical substance/The level of expressed mRNA in the absence of chemical substance: 1.5
Yeast gene YHR008C
  The level of expressed mRNA in the presence of chemical substance/The level of expressed mRNA in the absence of chemical substance: 0.9
Yeast gene YHR048W
  The level of expressed mRNA in the presence of chemical substance/The level of expressed mRNA in the absence of chemical substance: 1.9
Yeast gene YHR053C
  The level of expressed mRNA in the presence of chemical substance/The level of expressed mRNA in the absence of chemical substance: 2.2
Yeast gene YHR055C
  The level of expressed mRNA in the presence of chemical substance/The level of expressed mRNA in the absence of chemical substance: 2.1
Yeast gene YIR002C
  The level of expressed mRNA in the presence of chemical substance/The level of expressed mRNA in the absence of chemical substance: 1.2
Yeast gene YIR038C
  The level of expressed mRNA in the presence of chemical substance/The level of expressed mRNA in the absence of chemical substance: 1.3
Yeast gene YJL101C
  The level of expressed mRNA in the presence of chemical substance/The level of expressed mRNA in the absence of chemical substance: 1.3
Yeast gene YJR104C
  The level of expressed mRNA in the presence of chemical substance/The level of expressed mRNA in the absence of chemical substance: 1.5
Yeast gene YKL026C
  The level of expressed mRNA in the presence of chemical substance/The level of expressed mRNA in the absence of chemical substance: 1.8
Yeast gene YKL064W
  The level of expressed mRNA in the presence of chemical substance/The level of expressed mRNA in the absence of chemical substance: 0.9
Yeast gene YKR066C
  The level of expressed mRNA in the presence of chemical substance/The level of expressed mRNA in the absence of chemical substance: 0.7
Yeast gene YKR105C
  The level of expressed mRNA in the presence of chemical substance/The level of expressed mRNA in the absence of chemical substance: 1.3
Yeast gene YKR106W
  The level of expressed mRNA in the presence of chemical substance/The level of expressed mRNA in the absence of chemical substance: 1.3
Yeast gene YLL028W
  The level of expressed mRNA in the presence of chemical substance/The level of expressed mRNA in the absence of chemical substance: 0.7
Yeast gene YLL057C
  The level of expressed mRNA in the presence of chemical substance/The level of expressed mRNA in the absence of chemical substance: 1.4
Yeast gene YLL060C
  The level of expressed mRNA in the presence of chemical substance/The level of expressed mRNA in the absence of chemical substance: 5.8
Yeast gene YLR043C
  The level of expressed mRNA in the presence of chemical substance/The level of expressed mRNA in the absence of chemical substance: 1.1
Yeast gene YLR046C
  The level of expressed mRNA in the presence of chemical substance/The level of expressed mRNA in the absence of chemical substance: 0.5
Yeast gene YML028W
  The level of expressed mRNA in the presence of chemical substance/The level of expressed mRNA in the absence of chemical substance: 0.8
Yeast gene YML116W
  The level of expressed mRNA in the presence of chemical substance/The level of expressed mRNA in the absence of chemical substance: 2.2
Yeast gene YMR015C
  The level of expressed mRNA in the presence of chemical substance/The level of expressed mRNA in the absence of chemical substance: 0.7
Yeast gene YMR038C
  The level of expressed mRNA in the presence of chemical substance/The level of expressed mRNA in the absence of chemical substance: 1.9
Yeast gene YNL239W
  The level of expressed mRNA in the presence of chemical substance/The level of expressed mRNA in the absence of chemical substance: 1.3
Yeast gene YNL241C
  The level of expressed mRNA in the presence of chemical substance/The level of expressed mRNA in the absence of chemical substance: 0.9
Yeast gene YNL259C
  The level of expressed mRNA in the presence of chemical substance/The level of expressed mRNA in the absence of chemical substance: 1.5
Yeast gene YOL158C
  The level of expressed mRNA in the presence of chemical substance/The level of expressed mRNA in the absence of chemical substance: 0.7
Yeast gene YOR031W
  The level of expressed mRNA in the presence of chemical substance/The level of expressed mRNA in the absence of chemical substance: 0.9
Yeast gene YOR153W
  The level of expressed mRNA in the presence of chemical substance/The level of expressed mRNA in the absence of chemical substance: 0.5
Yeast gene YOR247W
  The level of expressed mRNA in the presence of chemical substance/The level of expressed mRNA in the absence of chemical substance: 0.7
Yeast gene YOR251C
  The level of expressed mRNA in the presence of chemical substance/The level of expressed mRNA in the absence of chemical substance: 1.1
Yeast gene YOR273C
  The level of expressed mRNA in the presence of chemical substance/The level of expressed mRNA in the absence of chemical substance: 0.6
Yeast gene YPL163C
  The level of expressed mRNA in the presence of chemical substance/The level of expressed mRNA in the absence of chemical substance: 0.5
Yeast gene YPR200C
  The level of expressed mRNA in the presence of chemical substance/The level of expressed mRNA in the absence of chemical substance: 1.4
